Read-outs that look alike come from different tables or passages of the source.
How the values were obtained:
Brain Dopamine Synthesis = assay: % effects on brain dopamine synthesis in rats; assay type: in vivo; settings: for change in vivo at 10 mg/kg: Rattus norvegicus
Description: (§1) The compounds of Formula I are valuable dopaminergic agents. […] Thus, the compounds of Formula I were tested for their ability to inhibit locomotor activity in mice and rats, a measure of antipsychotic activity, according to the assay described by J. R. McLean, et al, Pharmacology, Biochemistry and Behavior, Vol. 8, pages 97-99 (1978); for their ability to bind to dopamine receptors as measured by their inhibition of [^3 H]spiroperidol binding in a receptor assay described by D. Grigoriadis and P. Seeman, Journal of Neurochemistry, Vol. 44, pages 1925-1935 (1985); and for their ability to effect dopamine synthesis in rats according to the protocol described by J. R. Walters and R. H. Roth, Naunyn-Schmiedebero's Archives of Pharmacology, Vol. 296, pages 5-14 (1976). The above test methods are incorporated herein by reference. The data in the table show the dopaminergic activity of representative compounds of Formula I.

dopamine receptors [1] = assay: Comparison of 1,3 versus 1,4 series activity (binding and locomotor activity), results in words; settings: Table 2
Description: (§2) Thus, the compounds of Formula I were tested for their ability to inhibit locomotor activity in mice and rats, a measure of antipsychotic activity, according to the assay described by J. R. McLean, et al, Pharmacology, Biochemistry and Behavior, Vol. 8, pages 97-99 (1978); for their ability to bind to dopamine receptors as measured by their inhibition of [^3 H]spiroperidol binding in a receptor assay described by D. Grigoriadis and P. Seeman, Journal of Neurochemistry, Vol. 44, pages 1925-1935 (1985); and for their ability to effect dopamine synthesis in rats according to the protocol described by J. R. Walters and R. H. Roth, Naunyn-Schmiedebero's Archives of Pharmacology, Vol. 296, pages 5-14 (1976). The above test methods are incorporated herein by reference.
(§3) The most important test is the locomotor activity orally in the rat as this corresponds most closely to human oral administration of an antipsychotic compound.

dopamine receptors [2] = assay: Inhibition of [^3 H] spiroperidol binding
Description: as §1

[3] = tested on: Locomotor Activity in Rats; assay: Inhibition of locomotor activity in rats (oral); assay type: in vivo
Description: as §2, §3

[4] = tested on: Locomotor Activity in Mice; assay: Inhibition of locomotor activity in mice; assay type: in vivo; settings: for ED50: Mus musculus
Description: as §1

[5] = ip, read-out: % Effects on Brain Dopamine Synthesis in Rats, rats, 10 mg/kg, IP (Table 1)
[6] = ip, read-out: Inhibition of Locomotor Activity in Mice ED50, mice, IP (Table 1)
[7] = mice, IP (Table 2), read-out: Inhibition of Locomotor Activity in Mice ED50
[8] = rats, 10 mg/kg, IP (Table 1), read-out: % Effects on Brain Dopamine Synthesis in Rats
[9] = mice, IP (Table 1), read-out: Inhibition of Locomotor Activity in Mice ED50

SMILES	change in vivo at 10 mg/kg (Brain Dopamine Synthesis; [5])	IC50 (dopamine receptors [2]; Table 1)	ED50 [4, 6]	other results
C1=C(c2ccccc2)CCN(CC2CCC=C(c3ccccc3)C2)C1 (racemic) [Example 1, (±)-1,2,3,6-Tetrahydro-4-phenyl-1-[(3-phenyl-3-cyclohexen-1-yl)methyl]pyridine]	-86%	72 nM	1.6 mg/kg	binding and locomotor activity (dopamine receptors [1]): surprisingly much more active in its binding and locomotor activity; IC50 (dopamine receptors [2]; Table 2): 72 nM; locomotor activity orally in the rat ([3]; Table 2 compounds): clearly the most potent; times more active than the 1,4 Compound C, locomotor activity orally in the rat ([3]; versus Compound C): 4.8 times; ED50 ([4]; ip, read-out: Inhibition of Locomotor Activity in Mice ED50, mice, IP (Table 2)): 1.6 mg/kg
C1=C(c2ccccc2)CC(N2CCN(c3ccccn3)CC2)CC1 (racemic) [Compound J, (±)-1-(3-phenyl-3-cyclohexen-1-yl)-4-(2-pyridinyl)piperazine, reference compound]	–	–	–	binding and locomotor activity (dopamine receptors [1]): essentially inactive; IC50 (dopamine receptors [2]; Table 2): 9850 nM; ED50 [4, 7]: 28.2 mg/kg
C1=C(c2ccccc2)CC(CN2CCN(c3ccccn3)CC2)CC1 (racemic) [Example 4, (±)-1-[(3-phenyl-3-cyclohexen-1-yl)methyl]-4-(2-pyridinyl)piperazine]	–	141 nM	–	change in vivo at 10 mg/kg (Brain Dopamine Synthesis; [8]): -61%; binding and locomotor activity (dopamine receptors [1]): very potent; IC50 (dopamine receptors [2]; Table 2): 141 nM; ED50 [4, 9]: 0.85 mg/kg
Fc1ccc(C2=CCCC(CN3CCN(c4ccccn4)CC3)C2)cc1 (racemic) [Example 5, (±)-1-[[3-(4-Fluorophenyl)-3-cyclohexen-1-yl]methyl]-4-(2-pyridinyl)piperazine]	–	143 nM	1.2 mg/kg	change in vivo at 10 mg/kg (Brain Dopamine Synthesis; [8]): -58%
C1=C(c2ccccc2)CCN(CC2CCC=C(c3ccccc3)C2)C1 (single isomer, unassigned; (+)) [Example 6, (+)-1,2,3,6-Tetrahydro-4-phenyl-1-[(3-phenyl-3-cyclohexen-1-yl)methyl]pyridine]	–	227 nM	–	% Effects on Brain Dopamine Synthesis in Rats (Brain Dopamine Synthesis; rats, 10 mg/kg, IP (Table 1)): -50%; Inhibition of Locomotor Activity in Mice ED50 ([4]; mice, IP (Table 1)): 1.0 mg/kg
C1=C(c2ccccc2)CC(CN2CCN(c3ccccn3)CC2)C1 (racemic) [Example 25, (±)-1-[(3-phenyl-3-cyclopenten-1-yl)methyl]-4-(2-pyridinyl)piperazine]	–	190 nM	–	change in vivo at 10 mg/kg (Brain Dopamine Synthesis; [8]): -45%; ED50 [4, 9]: 2.7 mg/kg
C1=C(c2ccccc2)CCN(CC2CCC=C(c3c[nH]c4ccccc34)C2)C1 (racemic) [Example 26, (±)-3-[5-[(3,6-dihydro-4-phenyl-1(2H)-pyridinyl)methyl]-1-cyclohexen-1-yl]-1H-indole]	-23%	288 nM	2 mg/kg	–
Fc1ccc(C2=CC(CN3CC=C(c4ccccc4)CC3)CCC2)cc1 (racemic) [Example 3a, (±)-1-[[3-(4-Fluorophenyl)-2-cyclohexen-1-yl]methyl]-1,2,3,6-tetrahydro-4-phenylpyridine]	-41%	1070 nM	2.9 mg/kg	–
C1=C(c2ccccc2)CCN(C[C@@H]2CCC[C@H](c3ccccc3)C2)C1.Cl [Example 20, (1R-cis) 1,2,3,6-tetrahydro-4-phenyl-1-[(3-phenylcyclohexyl)methyl]pyridine monohydrochloride]	-100%	71 nM	0.7 mg/kg	–
C1=C(c2ccccc2)CCN(C[C@@H]2CCC=C(c3cccs3)C2)C1.Cl [Example 10, (R)-1,2,3,6-tetrahydro-4-phenyl-1-[[3-(2-thienyl)-3-cyclohexen-1-yl]methyl]pyridine monohydrochloride]	-54%	79 nM	1.6 mg/kg	–
COc1ccc(C2=CCC[C@@H](CN3CC=C(c4ccccc4)CC3)C2)cc1.Cl [Example 11, (R)-1,2,3,6-tetrahydro-1-[[3-(4-methoxyphenyl)-3-cyclohexen-1-yl]methyl]-4-phenylpyridine monohydrochloride]	-47%	100 nM	0.37 mg/kg	–
Cc1ccc(C2=CCC[C@@H](CN3CC=C(c4ccccc4)CC3)C2)cc1 [Example 9, (R)-1,2,3,6-tetrahydro-1-[[3-(4-methylphenyl)-3-cyclohexen-1-yl]methyl]-4-phenylpyridine]	-42%	184 nM	0.8 mg/kg	–
C1=C(c2ccccc2)CCC(CCN2CCN(c3ccccn3)CC2)C1 (racemic) [H, (±)-1-[(4-phenyl-3-cyclohexen-1-yl)ethyl]-4-(2-pyridinyl)piperazine, reference compound]	–	–	–	binding and locomotor activity (dopamine receptors [1]): much more active than Compound G; IC50 (dopamine receptors [2]; Table 2): 409 nM; ED50 [4, 7]: 1.1 mg/kg
C1=C(c2ccccc2)CCN(C[C@H]2C=C(c3cccs3)CCC2)C1.Cl [Example 10a, (R)-1,2,3,6-tetrahydro-4-phenyl-1-[[3-(2-thienyl)-2-cyclohexen-1-yl]methyl]pyridine monohydrochloride]	-58%	110 nM	1.5 mg/kg	–
C1=C(c2cccnc2)CCC[C@H]1CN1CC=C(c2ccccc2)CC1.Cl.Cl [Example 12a, (R)-3-[3-[(3,6-dihydro-4-phenyl-1(2H)-pyridinyl)methyl]-1-cyclohexen-1-yl]pyridine dihydrochloride]	-97%	87 nM	0.07 mg/kg	–
C1=C(c2ccccc2)CCN(C[C@@H]2CCC=C(c3cnc4ccccc4c3)C2)C1 [Example 17, (R)-3-[5-[(3,6-dihydro-4-phenyl-1(2H)-pyridinyl)methyl]-1-cyclohexen-1-yl]quinoline]	-21%	76 nM	0.23 mg/kg	–
C1=C(c2ccccc2)CCC(N2CCN(c3ccccn3)CC2)C1 (racemic) [F, (±)-1-(4-phenyl-3-cyclohexen-1-yl)-4-(2-pyridinyl)piperazine, reference compound]	–	–	–	binding and locomotor activity (dopamine receptors [1]): much more active than Compound G; IC50 (dopamine receptors [2]; Table 2): 599 nM; ED50 [4, 7]: 1.01 mg/kg
